Blank lines part the entries; values can stand above or below the molecule they belong to.
Legend:
[1] = Average particle diameter by dry particle size distribution measurement (AEROSIZER mach 2); format: physicochemical; settings: dry particle size distribution measurement after grinding
Description: The average particle diameter of the finely ground powder of MX-68 in the present invention can be measured by using, for example, a dry particle size distribution measurement apparatus (AEROSIZER mach 2, manufactured by AMHERST PROCESS INSTRUMENTS, INC) as will be described in Example 1 hereinafter. The finely ground powder of MX-68 according to the present invention has an average particle diameter of from 5 to 25 μm. When the average particle diameter is less than 5 μm, the finely ground powder is liable to be charged with static electricity and thus there arises a high possibility of dusting and adhesion. When the average particle diameter exceeds 25 μm, on the other hand, it is feared that the solubility and/or content uniformity of MX-68 are adversely affected. It is preferable that the average particle diameter ranges from 8 to 15 μm, still preferably from 9 to 11 μm.
A crystalline bulk powder of MX-68 obtained by the method described in Japanese Laid-Open Patent Publication No. 6-239863(A)) (manufactured by Chugai Pharmaceutical Co., Ltd.) was manually ground in an agate mortar. Separately, the same bulk powder was ground with a centrifugal grinder (ZM-1, manufactured by Nippon Seiki Seisakusho) by using a screen (pore size: 0.2 mm) at 20,000 rpm. Separately, the same bulk powder was ground with a micro-labo jet mill (A-O Jet Mill, manufactured by Seishin Kigyo). The particle diameter of each finely ground powder of MX-68 thus obtained was measured by using a dry particle size distribution measurement apparatus (AEROSIZER mach 2, manufactured by AMHERST PROCESS INSTRUMENTS, INC) and the average particle diameter was determined. As a result, the average particle diameter could be controlled to 9 to 11 μm by each grinding method (Table 1).

[2] = Thermal analysis: differential scanning calorimetry, endotherm; format: physicochemical; settings: DSC; for endotherm compared with the unground bulk powder (in words): before and after the grinding treatment; for Endotherm: temperature rise 5° C./min
Experimental: The finely ground powder of MX-68 sustaining the crystallinity according to the present invention means a finely ground powder of MX-68 which has, both before and after the grinding treatment, parts showing polarization when observed under a polarization microscope, and has an endotherm of from 25 to 50 mJ/mg, preferably from […] at an endothermic peak appearing, for example, at 185 to 195° C. in the differential scanning calorimetry as will be described Example 2.
A crystalline bulk powder of MX-68 obtained by the method described in Japanese Laid-Open Patent Publication No. 6-239863(A)) (manufactured by Chugai Pharmaceutical Co., Ltd.) and the finely ground powders of MX-68 obtained by the grinding methods described in Example 1 were thermally analyzed to thereby determine the differential scanning calories (DSC, temperature rise: 5° C./min). Then the endotherm (caused by the endothermic reaction occurring in association with the conversion of crystalline particles in the crystalline bulk powder into the amorphous state) was calculated.

[3] = Storage stability (60° C., 2 weeks); format: physicochemical; settings: for storage stability after the grinding treatment (in words): 60° C.; for Residual ratio: storage 60° C.
Experimental: A comparison was made on the storage stability (60° C., 2 weeks) of the crystalline bulk powder of MX-68 obtained by the method described in Japanese Laid-Open Patent Publication No. 6-239863(A)) (manufactured by Chugai Pharmaceutical Co., Ltd.), the mortar-ground bulk powder and the centrifugal-ground bulk powder obtained in Example 1.

[4] = Dissolution test, method 2 (paddle method), Japanese Pharmacopoeia; format: physicochemical; settings: compared with the amorphous bulk powder
Description: Tablets of the following formula were produced by using the crystalline bulk powder of MX-68 obtained by the method described in Japanese Laid-Open Patent Publication No. 6-239863(A)) (manufactured by Chugai Pharmaceutical Co., Ltd.), an amorphous bulk powder and the centrifugal.-ground bulk powder obtained in Example 1. More particularly, MX-68, lactose, crystalline cellulose and croscarmellose sodium were dry-mixed. After adding water, the mixture was kneaded and granulated. Then the granulated matter was dried at 50° C., mixed with magnesium stearate, and press molded to give tablets of 6 mm in diameter. In accordance with the method 2 (paddle method) of the dissolution test as specified in Japanese Pharmacopoeia, these tablets were subjected to the dissolution test using 500 ml of JP official solution 1 at 37° C.

[5] = Pharmacokinetics after oral administration to dogs, MX-68 concentration in the blood; format: in vivo; settings: 1 mg/kg

Average particle diameter [1]: 9.3 μm
endotherm compared with the unground bulk powder (in words) [2]: a decrease in the endotherm
Endotherm [2]: 22.3 mJ/mg
storage stability after the grinding treatment (in words) [3]: a decrease in stability
Residual ratio ([3]; listed as Motor-ground bulk powder): 90.9%
SMILES: Nc1nc(N)c2nc(CN3CCSc4cc(C(=O)N[C@@H](CCCC(=O)O)C(=O)O)ccc43)cnc2n1 [Mortar-ground bulk powder]

absorbability (in words) ([5]; compared with the unground bulk powder): higher absorbability
SMILES: Nc1nc(N)c2nc(CN3CCSc4cc(C(=O)N[C@@H](CCCC(=O)O)C(=O)O)ccc43)cnc2n1 [amorphous bulk MX-68 powder, N-(1-((2,4-diamino-6-pteridinyl)methyl)-3,4-dihydro-2H-1,4-benzothiazine-7-carbonyl)L-α-aminoadipic acid]

The remaining lines, values behind:

SMILES: Nc1nc(N)c2nc(CN3CCSc4cc(C(=O)N[C@@H](CCCC(=O)O)C(=O)O)ccc43)cnc2n1 [Centrifugal-ground bulk powder, N-(1-((2,4-diamino-6-pteridinyl)methyl)-3,4-dihydro-2H-1,4-benzothiazine-7-carbonyl)L-α-aminoadipic acid]
Average particle diameter [1]: 11.4 μm
endotherm compared with the unground bulk powder (in words) [2]: no change in the endotherm
Endotherm [2]: 32.8 mJ/mg
storage stability after the grinding treatment (in words) [3]: sustained stability comparable to the unground bulk powder
Residual ratio [3]: 96.3%

SMILES: Nc1nc(N)c2nc(CN3CCSc4cc(C(=O)N[C@@H](CCCC(=O)O)C(=O)O)ccc43)cnc2n1 [Jet mill-ground bulk powder, N-(1-((2,4-diamino-6-pteridinyl)methyl)-3,4-dihydro-2H-1,4-benzothiazine-7-carbonyl)L-α-aminoadipic acid]
Average particle diameter [1]: 10.7 μm
endotherm compared with the unground bulk powder (in words) [2]: no change in the endotherm
Endotherm [2]: 33.2 mJ/mg

SMILES: Nc1nc(N)c2nc(CN3CCSc4cc(C(=O)N[C@@H](CCCC(=O)O)C(=O)O)ccc43)cnc2n1 [Unground bulk powder]
Endotherm [2]: 33.5 mJ/mg
Residual ratio [3]: 95.3%
solution speed (in words) [4]: lower solution speed
bioavailability (in words) ([5]; compared with the amorphous bulk powder): lower bioavailability
